Source: patent US10517889B2, “Modulators of SMAD7 expression” (Ionis Pharmaceuticals, Inc., priority 2017, dated 2019)
Strand notation (5' to 3'): a small letter for the sugar, then the base; units joined by * are phosphorothioate-linked, units joined directly phosphodiester-linked; [ ] holds rarer units or linkages, { } end groups; capitals alone tell only the bases. k = constrained ethyl (cEt); [5mC] = 5-methylcytosine; d = 2'-deoxy (DNA)

Test system: human SMAD7 mRNA
Assay: Antisense inhibition of human SMAD7 mRNA expression in Hep3B cells by 3-10-3 cEt gapmers, 10,000 nM, electroporation (Example 2)
Assay type: cell-based
Settings: approximately 24 hours
How it was run: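 qRT-PCR (RTS5062) of SMAD7 mRNA, normalised to RIBOGREEN total RNA, gave percent inhibition relative to untreated controls. Hep3B cells at 20,000 per well received 10,000 nM oligonucleotide by electroporation, with ~24 h treatment.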

[1] = SMAD7 mRNA, Hep3B cells, 10,000 nM antisense oligonucleotide, electroporation, primer probe set RTS5062, relative to untreated control cells
[2] = SMAD7 mRNA, Hep3B cells, electroporation with 10,000 nM antisense oligonucleotide, primer probe set RTS5062, relative to untreated control cells
[3] = Hep3B cells, 10,000 nM antisense oligonucleotide, electroporation, RT-PCR primer probe set RTS5062, relative to untreated control cells
[4] = Hep3B cells, electroporation with 10,000 nM antisense oligonucleotide, RTS5062, percent inhibition of SMAD7 mRNA relative to untreated control cells
[5] = Hep3B cells, electroporation with 10,000 nM antisense oligonucleotide, primer probe set RTS5062, relative to untreated control cells
[6] = Hep3B cells, electroporation with 10,000 nM antisense oligonucleotide, SMAD7 mRNA by RT-PCR (RTS5062), relative to untreated control cells
[7] = Hep3B cells, electroporation, 10,000 nM antisense oligonucleotide, RTS5062, relative to untreated control cells

Substance: 829750 (antisense k[5mC]*kG*kT*d[5mC]*d[5mC]*dT*d[5mC]*dG*d[5mC]*d[5mC]*dG*d[5mC]*d[5mC]*kG*kG*kG) [compound 829750]
- % Inhibition [1]: 33%

Substance: 829877 (antisense kT*k[5mC]*k[5mC]*dG*dG*dG*dT*dT*dG*dT*d[5mC]*d[5mC]*dA*kG*kT*kG) [compound 829877]
- % Inhibition [2]: 42%

Substance: 800097 (antisense kG*k[5mC]*k[5mC]*dT*d[5mC]*dA*dA*dA*dA*dA*dG*d[5mC]*d[5mC]*kT*k[5mC]*kA) [compound 800097]
- % Inhibition [3]: 1%

Substance: 799845 (antisense kG*kA*kA*dG*dT*dA*d[5mC]*d[5mC]*dT*dA*dG*dA*dG*kG*kA*kG) [compound 799845]
- % Inhibition [4]: 31%

Substance: 799203 (antisense kG*kG*kT*dT*dT*dT*dT*dT*dT*dT*d[5mC]*dA*dG*kG*kA*kG) [compound 799203]
- % inhibition of SMAD7 mRNA expression [5]: 56%

Substance: 790462 (kG*k[5mC]*kG*d[5mC]*dA*dG*dG*d[5mC]*dG*dA*d[5mC]*dA*dG*k[5mC]*kA*kG; antisense) [compound 790462]
- % inhibition of SMAD7 mRNA expression [5]: 43%

Substance: 830113 (kA*kG*k[5mC]*d[5mC]*d[5mC]*d[5mC]*dA*dT*dT*d[5mC]*dA*dT*dT*kA*kA*kG; antisense) [compound 830113]
- % Inhibition [6]: 36%

Substance: 799995 (k[5mC]*kT*kG*dT*dG*dA*dG*dG*d[5mC]*dA*d[5mC]*dT*dT*kG*kG*kA; antisense) [compound 799995]
- % Inhibition [3]: 63%

Substance: 798663 (kT*kG*k[5mC]*dG*d[5mC]*dT*d[5mC]*d[5mC]*dG*dG*d[5mC]*dT*dG*k[5mC]*k[5mC]*k[5mC]; antisense) [compound 798663]
- % inhibition of SMAD7 mRNA expression [5]: 41%

Substance: 830002 (kT*kA*kG*d[5mC]*d[5mC]*d[5mC]*dA*dA*d[5mC]*dT*dG*dT*dT*kT*kG*kT; antisense) [compound 830002]
- % Inhibition [2]: 43%

Substance: 830011 (antisense k[5mC]*k[5mC]*kA*dG*dT*d[5mC]*dT*d[5mC]*dA*dA*dA*dT*dG*kG*kG*k[5mC]) [compound 830011]
- % Inhibition [2]: 25%

Substance: 790486 (kT*kG*k[5mC]*d[5mC]*dT*dG*dA*dG*dA*dT*d[5mC]*d[5mC]*dG*kG*k[5mC]*k[5mC]; antisense) [compound 790486]
- % Inhibition [1]: 23%

Substance: 799649 (antisense kA*kA*kA*dT*dG*dA*dA*dA*dG*d[5mC]*d[5mC]*d[5mC]*d[5mC]*k[5mC]*kA*kG) [compound 799649]
- % Inhibition [4]: 53%

Substance: 799223 (kA*kT*k[5mC]*dT*dT*dG*dT*dG*dT*dT*dT*dA*dT*k[5mC]*kT*kT; antisense) [compound 799223]
- % Inhibition [5]: 0%

Substance: 799017 (kT*kG*k[5mC]*dA*dA*dA*d[5mC]*d[5mC]*dT*d[5mC]*dT*d[5mC]*dT*kG*k[5mC]*kT; antisense) [compound 799017]
- % Inhibition [5]: 0%

Substance: 830091 (kA*kA*kT*dA*d[5mC]*dA*d[5mC]*dA*dA*dG*dA*d[5mC]*d[5mC]*k[5mC]*kT*kG; antisense) [compound 830091]
- % Inhibition [6]: 37%

Substance: 799048 (antisense kT*k[5mC]*k[5mC]*dT*dT*dG*dA*dT*dG*dA*dG*dG*dG*kA*kG*kA) [compound 799048]
- % inhibition of SMAD7 mRNA expression [5]: 60%

Substance: 800072 (antisense kG*kA*k[5mC]*dT*dT*dG*dG*dG*dA*d[5mC]*d[5mC]*dA*dT*kA*kA*kA) [compound 800072]
- % Inhibition [3]: 0%

Substance: 799891 (antisense kA*kT*k[5mC]*dA*dT*dT*dA*dA*dG*d[5mC]*d[5mC]*dA*dA*kT*kT*kT) [compound 799891]
- % Inhibition [3]: 0%

Substance: 790631 (kG*kT*kT*dT*dA*dA*dT*dG*dG*dA*dA*d[5mC]*dA*kT*kA*kA; antisense) [compound 790631]
- % Inhibition [5]: 0%

Substance: 799500 (antisense kG*kA*kG*d[5mC]*dA*dG*dA*d[5mC]*dG*dG*dG*d[5mC]*dA*kA*kG*kT) [compound 799500]
- % inhibition of SMAD7 mRNA expression [7]: 28%

Substance: 799969 (kT*kT*kA*dG*dA*dG*dT*dG*dA*dG*dT*dT*d[5mC]*k[5mC]*kT*k[5mC]; antisense) [compound 799969]
- % Inhibition [6]: 46%

Substance: 798763 (kG*kA*kG*dT*dA*dG*dG*dA*d[5mC]*dG*dA*dG*dG*kG*k[5mC]*kG; antisense) [compound 798763]
- % inhibition of SMAD7 mRNA expression [5]: 53%

Substance: 799949 (antisense kA*k[5mC]*kT*dG*dG*d[5mC]*d[5mC]*dG*dA*dA*dG*dT*dG*k[5mC]*kA*kG) [compound 799949]
- % Inhibition [6]: 10%

Substance: 799165 (antisense kG*kT*kG*dT*d[5mC]*dG*dA*dA*dG*dT*dA*dT*d[5mC]*kA*kT*kA) [compound 799165]
- % inhibition of SMAD7 mRNA expression [5]: 42%

Substance: 799439 (antisense kA*kA*kG*dA*dG*dG*dG*dA*d[5mC]*d[5mC]*dT*d[5mC]*dG*kG*kT*kT) [compound 799439]
- % inhibition of SMAD7 mRNA expression [5]: 0%

Substance: 799022 (kG*kG*kG*dA*d[5mC]*dT*dG*d[5mC]*dA*dA*dA*d[5mC]*d[5mC]*kT*k[5mC]*kT; antisense) [compound 799022]
- % Inhibition [5]: 61%

Substance: 798927 (antisense k[5mC]*kA*kG*d[5mC]*dA*dA*dA*dG*dT*dA*dG*dT*dT*kT*kG*kA) [compound 798927]
- % Inhibition [3]: 0%

Substance: 798777 (kG*k[5mC]*kA*dA*d[5mC]*dA*d[5mC]*dA*dG*d[5mC]*d[5mC]*dT*d[5mC]*kT*kT*kG; antisense) [compound 798777]
- % inhibition of SMAD7 mRNA expression [5]: 20%

Substance: 799699 (antisense k[5mC]*kA*kA*dA*dA*d[5mC]*dA*dG*dT*dG*dG*dA*d[5mC]*k[5mC]*kA*kT) [compound 799699]
- % inhibition of SMAD7 mRNA expression [7]: 57%

Substance: 799988 (kG*k[5mC]*kG*d[5mC]*dA*dA*dA*d[5mC]*dA*dT*d[5mC]*dA*d[5mC]*k[5mC]*kA*k[5mC]; antisense) [compound 799988]
- % Inhibition [6]: 32%

Substance: 830203 (kG*k[5mC]*kT*d[5mC]*dT*dG*dA*dA*dG*dG*d[5mC]*dT*dA*k[5mC]*kA*k[5mC]; antisense) [compound 830203]
- % Inhibition [6]: 40%

Substance: 772696 (kT*k[5mC]*kT*d[5mC]*dT*d[5mC]*dA*dA*dA*dG*d[5mC]*dA*d[5mC]*kT*kA*k[5mC]; antisense) [compound 772696]
- % inhibition of SMAD7 mRNA expression [5]: 56%

Substance: 798807 (kA*kT*k[5mC]*dT*dG*dA*dA*dA*dG*d[5mC]*d[5mC]*d[5mC]*d[5mC]*k[5mC]*k[5mC]*kA; antisense) [compound 798807]
- % inhibition of SMAD7 mRNA expression [5]: 64%

Substance: 799462 (antisense kA*kA*kG*d[5mC]*dA*d[5mC]*dT*dA*dG*dG*dT*dT*d[5mC]*kT*kG*k[5mC]) [compound 799462]
- % inhibition of SMAD7 mRNA expression [5]: 43%

Substance: 830094 (kT*k[5mC]*kT*dT*dA*d[5mC]*d[5mC]*dT*dG*dA*dA*dA*dG*k[5mC]*k[5mC]*k[5mC]; antisense) [compound 830094]
- % Inhibition [6]: 30%

Substance: 829966 (kT*kT*k[5mC]*d[5mC]*d[5mC]*dA*dG*dG*dA*dG*dG*dG*dT*kA*kT*kG; antisense) [compound 829966]
- % Inhibition [2]: 0%

Substance: 800883 (antisense kA*k[5mC]*k[5mC]*dA*dT*dT*dT*dA*dT*d[5mC]*dT*dG*dG*kT*kG*kT) [compound 800883]
- % Inhibition [1]: 50%

Substance: 798980 (antisense kA*k[5mC]*kA*d[5mC]*dT*dG*dT*dG*dT*dT*dT*dG*dG*kT*kG*kG) [compound 798980]
- % Inhibition [5]: 50%

Substance: 799800 (kT*kT*kA*d[5mC]*dA*dA*dA*dG*dG*dG*dA*dA*dA*kG*kT*k[5mC]; antisense) [compound 799800]
- % inhibition of SMAD7 mRNA expression [7]: 28%

Substance: 800074 (antisense kG*kG*kG*d[5mC]*dA*dT*dT*d[5mC]*dT*dG*dA*d[5mC]*dT*k[5mC]*k[5mC]*kT) [compound 800074]
- % Inhibition [3]: 33%

Substance: 800065 (antisense kT*kT*kA*dA*dG*dT*dA*dG*d[5mC]*dA*dG*d[5mC]*d[5mC]*kA*kG*kT) [compound 800065]
- % Inhibition [6]: 55%

Substance: 829769 (antisense k[5mC]*kA*kG*d[5mC]*dA*dG*dG*dA*dG*dG*d[5mC]*dA*d[5mC]*kG*k[5mC]*kG) [compound 829769]
- % Inhibition [1]: 46%

Substance: 799207 (k[5mC]*kT*kT*dT*dA*dT*dA*dT*dT*dT*dA*d[5mC]*dA*kA*kG*kT; antisense) [compound 799207]
- % Inhibition [5]: 0%

Substance: 830043 (kT*kT*kG*dG*d[5mC]*dA*dG*dG*dT*dT*dA*dA*dT*k[5mC]*kA*k[5mC]; antisense) [compound 830043]
- % Inhibition [6]: 45%

Substance: 800007 (k[5mC]*kT*k[5mC]*dA*dA*dG*dG*d[5mC]*d[5mC]*dA*d[5mC]*dA*dT*kT*kT*kT; antisense) [compound 800007]
- % Inhibition [6]: 23%
